{"source": "patent US6750234B2", "about": "“Methods for increasing leptin levels using nicotinic acid compounds” (University of Kentucky Research Foundation, priority 2001, dated 2004)", "key": {"leptin [1]": {"test_system": "leptin", "conditions": "transgenic mice; cited from earlier work"}, "leptin [2]": {"test_system": "leptin", "conditions": "male BALB/C mice, 4 ml/kg/mouse, vs vehicle", "experimental": "The experiments described in example 2 were continued, in the experiment described in this example. Specifically, male BALB/C mice were shaved, from the scapulae to tail bases. The subject animals then received topical application of the lauryl nicotinate ester lotion, described in example 2, supra, or myristyl nicotinate ester lotion, in varying concentrations. Controls received vehicle only. The lotion was applied at a dose of 4 ml/kg/mouse.\nSerum leptin levels were measured, as described, supra."}, "full thickness wounds": {"test_system": "full thickness wounds", "conditions": "mice, about 6 mm full thickness wounds, topical 20% lotion, 100 μl twice every day for 14 days, vs lotion without ester", "experimental": "Mice were inflicted with full thickness wounds of about 6 mm in diameter, under anesthesia (sodium phenobarbital). They then received topical application of a 20% nicotinate ester lotion, every day, for 14 days. The dosing was 100 μl for each application, with two applications every day. As a control, the lotion without the ester was used. Wound diameter was measured every day."}, "leptin [3]": {"test_system": "leptin", "conditions": "female apoB/CETP mice", "protocol": "Leptin levels in plasma were determined using a commercially available murine leptin radioimmunoassay. The RIA was carried out on fasting (16 h) blood samples obtained from the retroorbital plexus. The blood samples were collected and centrifuged at 2000×g for 15 minutes to secure plasma."}, "Human adipocytes": {"test_system": "Human adipocytes", "conditions": "0.1 mM niacin, 24 hours, vs cultures without niacin", "experimental": "Human adipocytes were obtained in accordance with standard methods. In brief, preadipocytes were collected from subcutaneous adipose tissue, following collagenase treatment. The preadipocytes were plated, and allowed to differentiate for 3 weeks, to form adipocytes.\nThe adipocytes were then incubated, in 0.6 ml of DMEM/F-10 medium, to which 2% bovine serum albumin was added.\nAfter 24 hours, the culture medium was analyzed for leptin, using a commercially available ELISA kit."}}, "note": "Read-outs that look alike come from different tables or passages of the source."}
{"smiles": "Cc1cnc(C(=O)O)c[n+]1[O-]", "note": "[Acipimox]", "values": [{"measurement": "plasma leptin levels", "setting": "leptin [1]", "value": "increase plasma leptin levels"}]}
{"smiles": "CCCCCCCCCCCCOC(=O)c1cccnc1", "note": "[lauryl nicotinate ester]", "values": [{"measurement": "increase in serum leptin levels", "setting": "leptin [2]; topical 10% lotion", "value": 45, "unit": "%"}, {"measurement": "reduction of wound thickness", "setting": "full thickness wounds", "value": 43, "unit": "%"}, {"measurement": "amount of circulating leptin (plasma)", "setting": "leptin [3]; topical, 200 mg of 10% (wt/wt) lotion daily for 13 weeks, compared with oral niacin", "value": "surpassed it in terms of the amount of circulating leptin"}]}
{"smiles": "CCCCCCCCCCCCCCOC(=O)c1cccnc1", "note": "[myristyl nicotinate ester]", "values": [{"measurement": "increase in serum leptin levels", "setting": "leptin [2]; topical 2% formulation", "value": 57, "unit": "%"}, {"measurement": "increase in serum leptin levels", "setting": "leptin [2]; topical 5% formulation", "value": 77, "unit": "%"}]}
{"smiles": "O=C(O)c1cccnc1", "note": "[niacin, reference compound]", "values": [{"measurement": "increase in leptin production", "setting": "Human adipocytes", "value": 62, "unit": "%"}, {"measurement": "amount of circulating leptin (plasma)", "setting": "leptin [3]; oral, sodium salt 0.75% in drinking water, approx. 1400 mg/kg, fasting (16 h) blood", "value": "did increase the amount of circulating leptin"}]}
